The test system of assay [1] is Pfeiffer cell line (diffuse large B cell lymphoma). The assay can be described thus: Example B2: Pfeiffer cell proliferation assay. In kind it is cell-based. The settings on record: Pfeiffer cells, [3H]-thymidine incorporation. The method, then:
Pfeiffer cell line (diffuse large B cell lymphoma) are purchased from ATCC (Manassas, Va.) and maintained in the culture medium recommended (RPMI and 10% FBS). To measure the anti-proliferation activity of the compounds, the Pfeiffer cells are plated with the culture medium (2×10^3 cells/well/per 200 μl) into 96-well ultra-low binding plates (Corning, Corning, N.Y.), in the presence or absence of a concentration range of test compounds. After 3-4 days, [^3H]-thymidine (1 μCi/well) (PerkinElmer, Boston, Mass.) in PBS is then added to the cell culture for an additional 12 hours before the incorporated radioactivity is separated by filtration with water through GF/B filters (Packard Bioscience, Meridenj, Conn.) and measured by liquid scintillation counting with a TopCount (Packard Bioscience).
On the technique in general: Dividing cells build labelled thymidine or BrdU into new DNA.

In a further assay the target is PI3Kδ (p110δ/p85α) (Homo sapiens (Human), UniProt O00329). The assay can be described thus: Example A3: PI3Kδ scintillation proximity assay. In kind it is biochemical. The settings on record: scintillation proximity assay, 20 μM ATP, 4 nM PI3Kδ; read-out: PI3Kδ SPA IC50. Summed up: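 p110δ/p85α (4 nM) phosphorylated 20 μM PIP2 with 20 μM ATP plus [γ-33P]ATP in MOPS pH 6.7, MgCl2, DTT, CHAPS, 0.5% DMSO, at RT. Stopped with EDTA/excess ATP, product captured on WGA SPA beads overnight and counted; IC50 from percent control activity versus log inhibitor.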
Chain of PI3Kδ (p110δ/p85α) (O00329 whole entry): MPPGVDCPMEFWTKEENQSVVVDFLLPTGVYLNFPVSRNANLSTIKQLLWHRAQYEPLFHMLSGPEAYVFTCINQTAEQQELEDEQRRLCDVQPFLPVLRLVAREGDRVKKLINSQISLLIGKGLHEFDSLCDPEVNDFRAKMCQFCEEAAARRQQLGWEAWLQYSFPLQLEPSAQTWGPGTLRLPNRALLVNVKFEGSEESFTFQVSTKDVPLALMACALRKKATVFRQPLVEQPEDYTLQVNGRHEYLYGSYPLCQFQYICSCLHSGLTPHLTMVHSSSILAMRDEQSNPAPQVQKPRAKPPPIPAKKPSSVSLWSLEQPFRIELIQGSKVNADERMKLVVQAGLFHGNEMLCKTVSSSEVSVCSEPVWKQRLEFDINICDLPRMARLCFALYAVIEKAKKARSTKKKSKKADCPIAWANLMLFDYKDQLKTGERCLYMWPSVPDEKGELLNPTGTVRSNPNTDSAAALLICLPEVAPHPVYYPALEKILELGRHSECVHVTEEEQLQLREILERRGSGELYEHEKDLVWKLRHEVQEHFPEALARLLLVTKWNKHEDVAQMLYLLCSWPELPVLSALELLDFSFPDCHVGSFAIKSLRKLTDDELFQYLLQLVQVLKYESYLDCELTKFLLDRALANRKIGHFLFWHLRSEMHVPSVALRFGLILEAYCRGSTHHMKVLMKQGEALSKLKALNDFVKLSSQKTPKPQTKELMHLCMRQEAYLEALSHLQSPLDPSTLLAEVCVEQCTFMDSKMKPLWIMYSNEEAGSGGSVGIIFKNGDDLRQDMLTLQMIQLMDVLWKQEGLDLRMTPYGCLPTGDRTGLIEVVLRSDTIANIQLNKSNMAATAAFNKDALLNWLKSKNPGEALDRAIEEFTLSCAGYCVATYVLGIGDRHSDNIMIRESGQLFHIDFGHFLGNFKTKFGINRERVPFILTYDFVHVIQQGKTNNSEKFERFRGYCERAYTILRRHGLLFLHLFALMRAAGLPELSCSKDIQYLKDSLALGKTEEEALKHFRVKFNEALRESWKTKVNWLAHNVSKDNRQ
Chain of PI3Kδ (p110δ/p85α) (P27986 whole entry partner): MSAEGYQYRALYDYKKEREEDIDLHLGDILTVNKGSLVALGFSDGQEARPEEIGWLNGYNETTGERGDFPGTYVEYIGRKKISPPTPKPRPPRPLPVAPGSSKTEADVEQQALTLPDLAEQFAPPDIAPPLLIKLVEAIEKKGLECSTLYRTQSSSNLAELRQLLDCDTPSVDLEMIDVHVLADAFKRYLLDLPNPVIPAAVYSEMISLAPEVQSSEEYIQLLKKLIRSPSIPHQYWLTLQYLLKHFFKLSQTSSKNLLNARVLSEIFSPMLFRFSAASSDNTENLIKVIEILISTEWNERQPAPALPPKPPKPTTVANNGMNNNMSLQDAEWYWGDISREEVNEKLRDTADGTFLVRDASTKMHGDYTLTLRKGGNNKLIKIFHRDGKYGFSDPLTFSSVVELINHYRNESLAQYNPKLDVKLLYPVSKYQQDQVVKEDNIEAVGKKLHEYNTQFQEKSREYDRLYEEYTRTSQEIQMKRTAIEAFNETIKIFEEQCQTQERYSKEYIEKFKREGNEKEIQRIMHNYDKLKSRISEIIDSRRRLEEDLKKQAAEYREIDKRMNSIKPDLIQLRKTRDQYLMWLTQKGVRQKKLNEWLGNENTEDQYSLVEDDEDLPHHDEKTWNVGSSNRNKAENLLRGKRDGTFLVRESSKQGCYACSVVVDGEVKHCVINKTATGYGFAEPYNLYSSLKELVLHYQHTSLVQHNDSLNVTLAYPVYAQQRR
A general note: Scintillation proximity formats need no separation of bound from free tracer.

A value given as a limit tells only on which side of the number the result lay.

A word on the IC50: it is the concentration that inhibits the measured activity by half. On to `CCOc1c(C(C)n2nc(C)c3c(N)ncnc32)cc(Cl)c(C)c1C1CN(C[C@H](C)O)C1` (stereo partly drawn) [Example 96, (2S)-1-(3-{3-[1-(4-Amino-3-methyl-1H-pyrazolo[3,4-d]pyrimidin-1-yl)ethyl]-5-chloro-2-ethoxy-6-methylphenyl}azetidin-1-yl)propan-2-ol bis(trifluoroacetate)], for which the IC50 in assay [1] (Homo sapiens, Pfeiffer) is < 10 nM; at PI3Kδ (p110δ/p85α), < 10 nM.

`CCOc1c(C(C)n2nc(C)c3c(N)ncnc32)cc(Cl)c(F)c1C1CN(CC(C)(C)O)C1` (racemic) [Example 140, 1-(3-{3-[1-(4-Amino-3-methyl-1H-pyrazolo[3,4-d]pyrimidin-1-yl)ethyl]-5-chloro-2-ethoxy-6-fluorophenyl}azetidin-1-yl)-2-methylpropan-2-ol]: the IC50 was < 10 nM in assay [1] (Homo sapiens, Pfeiffer) and < 10 nM at PI3Kδ (p110δ/p85α).

`COc1c(C(C)n2nc(C)c3c(N)ncnc32)cc(Cl)c(C)c1C1CN([C@@H](C)CO)C1` (some centres unmarked) [Example 157]: the IC50 in assay [1] (Homo sapiens, Pfeiffer) was 10 to 50 nM; at PI3Kδ (p110δ/p85α), < 10 nM.

With `COc1c(C(C)n2nc(C)c3c(N)ncnc32)cc(Cl)c(C#N)c1C1CN(C[C@@H](C)O)C1` (stereo partly drawn) [Example 270, 4-[1-(4-Amino-3-methyl-1H-pyrazolo[3,4-d]pyrimidin-1-yl)ethyl]-6-chloro-2-{1-[(2R)-2-hydroxypropyl]azetidin-3-yl}-3-methoxybenzonitrile], the half-maximal inhibitory concentration (IC50) in assay [1] (Homo sapiens, Pfeiffer) is < 10 nM; at PI3Kδ (p110δ/p85α), < 10 nM.

Regarding `CCOc1c(C(C)n2nc(C)c3c(N)ncnc32)cc(Cl)c(C#N)c1C1CN(C)C1` (single isomer, unassigned) [Example 213, 4-[1-(4-Amino-3-methyl-1H-pyrazolo[3,4-d]pyrimidin-1-yl)ethyl]-6-chloro-3-ethoxy-2-(1-methylazetidin-3-yl)benzonitrile], the half-inhibitory concentration (IC50) was < 10 nM in assay [1] (Homo sapiens, Pfeiffer) and < 10 nM on PI3Kδ (p110δ/p85α).

For `CCOc1c(C(C)n2nc(C)c3c(N)ncnc32)cc(Cl)c(F)c1C1CN(C(C)C)C1` (centres unmarked) [Example 139, 1-{1-[5-Chloro-2-ethoxy-4-fluoro-3-(1-isopropylazetidin-3-yl)phenyl]ethyl}-3-methyl-1H-pyrazolo[3,4-d]pyrimidin-4-amine], the IC50 in assay [1] (Homo sapiens, Pfeiffer) is < 10 nM; at PI3Kδ (p110δ/p85α), < 10 nM.

Turning to `COc1c(C(C)n2nc(C)c3c(N)ncnc32)cc(Cl)c(C)c1C1CCN(C)CC1` (racemic) [Example 163, 1-{1-[5-Chloro-2-methoxy-4-methyl-3-(1-methylpiperidin-4-yl)phenyl]ethyl}-3-methyl-1H-pyrazolo[3,4-d]pyrimidin-4-amine], the concentration for half-maximal inhibition (IC50) in assay [1] (Homo sapiens, Pfeiffer) is 10 to 50 nM; at PI3Kδ (p110δ/p85α) it was < 10 nM.

In the case of `COc1c(C(C)n2nc(C)c3c(N)ncnc32)cc(Cl)c(C)c1C1CN(CCO)C1` (single isomer, unassigned) [Example 104, 2-(3-{3-[1-(4-Amino-3-methyl-1H-pyrazolo[3,4-d]pyrimidin-1-yl)ethyl]-5-chloro-2-methoxy-6-methylphenyl}azetidin-1-yl)ethanol], the half-inhibitory concentration (IC50) in assay [1] (Homo sapiens, Pfeiffer) was 10 to 50 nM; at PI3Kδ (p110δ/p85α) it was < 10 nM.

Turning to `CCOc1c(C(C)n2nc(C)c3c(N)ncnc32)cc(Cl)c(C#N)c1C1CN(C[C@@H](C)O)C1` (stereo partly drawn) [Example 221, 4-[1-(4-Amino-3-methyl-1H-pyrazolo[3,4-d]pyrimidin-1-yl)ethyl]-6-chloro-3-ethoxy-2-{1-[(2R)-2-hydroxypropyl]azetidin-3-yl}benzonitrile], the IC50 was < 10 nM in assay [1] (Homo sapiens, Pfeiffer) and < 10 nM at PI3Kδ (p110δ/p85α).

`COc1c(C(C)n2nc(C)c3c(N)ncnc32)cc(Cl)c(C#N)c1C1CN(C[C@H](C)O)C1` (stereo partly drawn) [Example 269, 4-[1-(4-Amino-3-methyl-1H-pyrazolo[3,4-d]pyrimidin-1-yl)ethyl]-6-chloro-2-{1-[(2S)-2-hydroxypropyl]azetidin-3-yl}-3-methoxybenzonitrile]: the IC50 in assay [1] (Homo sapiens, Pfeiffer) was < 10 nM; at PI3Kδ (p110δ/p85α) it was < 10 nM.

Regarding `COc1c(C(C)n2nc(C)c3c(N)ncnc32)cc(Cl)c(C)c1C1CN(C[C@@H](C)O)C1` (single isomer, unassigned) [Example 103], the IC50 in assay [1] is 10 to 50 nM; on PI3Kδ (p110δ/p85α), < 10 nM.

For `CCOc1c(C(C)n2nc(C)c3c(N)ncnc32)cc(Cl)c(C#N)c1C1CN(C[C@H](C)O)C1` (stereo partly drawn) [Example 220, 4-[1-(4-Amino-3-methyl-1H-pyrazolo[3,4-d]pyrimidin-1-yl)ethyl]-6-chloro-3-ethoxy-2-{1-[(2S)-2-hydroxypropyl]azetidin-3-yl}benzonitrile], the IC50 was < 10 nM in assay [1] (Homo sapiens, Pfeiffer) and < 10 nM on PI3Kδ (p110δ/p85α).

As for `COc1c(C(C)n2nc(C)c3c(N)ncnc32)cc(Cl)c(C)c1C1CN(C(C)CF)C1` (centres unmarked) [Example 114, 1-(1-{5-Chloro-3-[1-(2-fluoro-1-methylethyl)azetidin-3-yl]-2-methoxy-4-methylphenyl}ethyl)-3-methyl-1H-pyrazolo[3,4-d]pyrimidin-4-amine], the IC50 was < 10 nM in assay [1] (Homo sapiens, Pfeiffer) and < 10 nM at PI3Kδ (p110δ/p85α).

`COc1c(C(C)n2nc(C)c3c(N)ncnc32)cc(Cl)c(C)c1C1CN(CC(C)O)C1` (stereo in doubt) [Example 102, (2S)-1-(3-{3-[1-(4-Amino-3-methyl-1H-pyrazolo[3,4-d]pyrimidin-1-yl)ethyl]-5-chloro-2-methoxy-6-methylphenyl}azetidin-1-yl)propan-2-ol]: the IC50 was < 10 nM in assay [1] (Homo sapiens, Pfeiffer) and < 10 nM at PI3Kδ (p110δ/p85α).

For `CCOc1c(C(C)n2nc(C)c3c(N)ncnc32)cc(Cl)c(F)c1C1CN(CCO)C1` (racemic) [Example 144, 2-(3-{3-[1-(4-Amino-3-methyl-1H-pyrazolo[3,4-d]pyrimidin-1-yl)ethyl]-5-chloro-2-ethoxy-6-fluorophenyl}azetidin-1-yl)ethanol], in assay [1] (Homo sapiens, Pfeiffer), the IC50 is < 10 nM.

As for `CCOc1c(C(C)n2nc(C(F)F)c3c(N)ncnc32)cc(Cl)c(F)c1C1CN(C[C@H](C)O)C1` (stereo partly drawn) [Example 154, (2S)-1-[3-(3-{1-[4-Amino-3-(difluoromethyl)-1H-pyrazolo[3,4-d]pyrimidin-1-yl]ethyl}-5-chloro-2-ethoxy-6-fluorophenyl)azetidin-1-yl]propan-2-ol], the 50% inhibitory concentration (IC50) in assay [1] (Homo sapiens, Pfeiffer) is < 10 nM; on PI3Kδ (p110δ/p85α), < 10 nM.

As for `COc1c(C(C)n2nc(C)c3c(N)ncnc32)cc(Cl)c(C#N)c1C1CN(C)C1` (single isomer, unassigned) [Example 262, 4-[1-(4-Amino-3-methyl-1H-pyrazolo[3,4-d]pyrimidin-1-yl)ethyl]-6-chloro-3-methoxy-2-(1-methylazetidin-3-yl)benzonitrile], the IC50 in assay [1] (Homo sapiens, Pfeiffer) is < 10 nM; at PI3Kδ (p110δ/p85α) it was < 10 nM.

With `COc1c(C(C)n2nc(C)c3c(N)ncnc32)cc(Cl)c(C#N)c1C1CN(CCO)C1` (single isomer, unassigned) [Example 268, 4-[1-(4-Amino-3-methyl-1H-pyrazolo[3,4-d]pyrimidin-1-yl)ethyl]-6-chloro-2-[1-(2-hydroxyethyl)azetidin-3-yl]-3-methoxybenzonitrile], the IC50 was < 10 nM in assay [1] (Homo sapiens, Pfeiffer) and < 10 nM at PI3Kδ (p110δ/p85α).

On to `COc1c(C(C)n2nc(C)c3c(N)ncnc32)cc(C)c(C#N)c1C1CN(C[C@H](C)O)C1` (single isomer, unassigned) [Example 315], for which the half-maximal inhibitory concentration (IC50) in assay [1] (Homo sapiens, Pfeiffer) was < 10 nM; on PI3Kδ (p110δ/p85α), < 10 nM.

In the case of `CCOc1c(C(C)n2nc(C)c3c(N)ncnc32)cc(Cl)c(F)c1C1CN(C[C@@H](C)O)C1` (stereo partly drawn) [Example 142, (2R)-1-(3-{3-[1-(4-Amino-3-methyl-1H-pyrazolo[3,4-d]pyrimidin-1-yl)ethyl]-5-chloro-2-ethoxy-6-fluorophenyl}azetidin-1-yl)propan-2-ol], the 50% inhibitory concentration (IC50) in assay [1] (Homo sapiens, Pfeiffer) is < 10 nM; at PI3Kδ (p110δ/p85α), < 10 nM.

On to `CCOc1c(C(C)n2nc(C)c3c(N)ncnc32)cc(Cl)c(F)c1C1CNC(=O)O1` (single isomer, unassigned) [Example 357, 5-{3-[1-(4-amino-3-methyl-1H-pyrazolo[3,4-d]pyrimidin-1-yl)ethyl]-5-chloro-2-ethoxy-6-fluorophenyl}-1,3-oxazolidin-2-one], for which the IC50 in assay [1] (Homo sapiens, Pfeiffer) is < 10 nM; on PI3Kδ (p110δ/p85α), < 10 nM.

Source of the values: patent US10092570B2 (Incyte Corporation, priority 2011, dated 2018).
